The target of this test is human voltage-gated proton channel hHv1 (Homo sapiens, UniProt Q96D96). Nature of the test: liposome proton flux assay. It counts as biochemical.
Sequence of human voltage-gated proton channel hHv1 (Q96D96 whole entry): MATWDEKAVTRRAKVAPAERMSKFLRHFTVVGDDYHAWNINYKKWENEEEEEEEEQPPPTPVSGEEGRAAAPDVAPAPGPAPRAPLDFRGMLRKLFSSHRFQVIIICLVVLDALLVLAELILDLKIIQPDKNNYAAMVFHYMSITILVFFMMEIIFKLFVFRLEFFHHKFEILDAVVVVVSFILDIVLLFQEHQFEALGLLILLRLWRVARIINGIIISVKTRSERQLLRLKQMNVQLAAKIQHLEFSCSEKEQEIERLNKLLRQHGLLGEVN

On to `CC(C)CCC[C@@H](C)[C@H]1CC[C@H]2[C@@H]3CC=C4C[C@@H](O)CC[C@]4(C)[C@H]3CC[C@]12C` [cholesterol], for which the IC50 is listed as ~ 10 % (wt/wt, to total membrane lipids).
